By EC50 is commonly meant the midpoint of the concentration-response curve.

Like-named read-outs stand apart in the source and are kept apart here.

27 compounds from US8987250B2 (Gilead Sciences, Inc., priority 2012, dated 2015) can be followed below.

In this experiment the test system is HIV-IIIb. The experiment can be described thus: Test A: Antiviral Assay in MT4 Cells. It counts as cell-based. As to conditions: Human immunodeficiency virus 1, IIIB, MT4, 120 h. The gist of the method:
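MT-4 cells pre-infected with HIV-IIIb (0.004 m.o.i.) at 37 °C, then exposed to 3-fold serial compound dilutions (10 concentrations, quadruplicate) in RPMI 1640/10% FBS. After 5 days at 37 °C, viability read by CellTiter-Glo luminescence.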

The mark [1] stands for this setting: Table 2, MT-4 cells infected with HIV-IIIb, 5 days of incubation, CellTiter-Glo, read-out: EC50.

With `Cc1cc2nc(-c3ccnc(N4CCOCC4)c3)sc2c(-c2ccc(Cl)cc2)c1[C@H](OC(C)(C)C)C(=O)O` [Compound 218, (S)-2-tert-butoxy-2-(7-(4-chlorophenyl)-5-methyl-2-(2-morpholinopyridin-4-yl)benzo[d]thiazol-6-yl)acetic acid], the half-maximal effective concentration (EC50) under setting [1] was 116 nM. Same read-out and setting: the result for `Cc1cc2nc(-c3ccnc(N4CCN(C)CC4)c3)sc2c(-c2ccc(Cl)cc2)c1[C@H](OC(C)(C)C)C(=O)O` [Compound 219, (S)-2-tert-butoxy-2-(7-(4-chlorophenyl)-5-methyl-2-(2-(4-methylpiperazin-1-yl)pyridin-4-yl)benzo[d]thiazol-6-yl)acetic acid] reads 39 nM. As to `CCN1CCN(c2cc(-c3nc4cc(C)c([C@H](OC(C)(C)C)C(=O)O)c(-c5ccc(Cl)cc5)c4s3)ccn2)CC1` [Compound 220, (S)-2-tert-butoxy-2-(7-(4-chlorophenyl)-2-(2-(4-ethylpiperazin-1-yl)pyridin-4-yl)-5-methylbenzo[d]thiazol-6-yl)acetic acid], the EC50 under setting [1] amounted to 43 nM. On the same count and under the same terms, the result for `Cc1cc2nc(-c3ccnc(N4CCN(C(C)C)CC4)c3)sc2c(-c2ccc(Cl)cc2)c1[C@H](OC(C)(C)C)C(=O)O` [Compound 221, (S)-2-tert-butoxy-2-(7-(4-chlorophenyl)-2-(2-(4-isopropylpiperazin-1-yl)pyridin-4-yl)-5-methylbenzo[d]thiazol-6-yl)acetic acid] reads 24 nM. The compound `Cc1cc2nc(-c3ccnc(N4CCn5c(nnc5C(F)(F)F)C4)c3)sc2c(-c2ccc(Cl)cc2)c1[C@H](OC(C)(C)C)C(=O)O` [Compound 222, (S)-2-tert-butoxy-2-(7-(4-chlorophenyl)-5-methyl-2-(2-(3-(trifluoromethyl)-5,6-dihydro-[1,2,4]triazolo[4,3-a]pyrazin-7(8H)-yl)pyridin-4-yl)benzo[d]thiazol-6-yl)acetic acid] returned an EC50 of 49 nM. With `Cc1cc2nc(-c3ccnc(N4CCn5cnnc5C4)c3)sc2c(-c2ccc(Cl)cc2)c1[C@H](OC(C)(C)C)C(=O)O` [Compound 223, (S)-2-tert-butoxy-2-(7-(4-chlorophenyl)-2-(2-(5,6-dihydro-[1,2,4]triazolo[4,3-a]pyrazin-7(8H)-yl)pyridin-4-yl)-5-methylbenzo[d]thiazol-6-yl)acetic acid], the EC50 under setting [1] is 312 nM.

For the compound `Cc1cc2nc(-c3ccnc(N4CCc5c(c(C)nn5C)C4)c3)sc2c(-c2ccc(Cl)cc2)c1[C@H](OC(C)(C)C)C(=O)O` [Compound 224, (S)-2-tert-butoxy-2-(7-(4-chlorophenyl)-2-(2-(1,3-dimethyl-6,7-dihydro-1H-pyrazolo[4,3-c]pyridin-5(4H)-yl)pyridin-4-yl)-5-methylbenzo[d]thiazol-6-yl)acetic acid], the EC50 under setting [1] stood at 12 nM.

For `Cc1cc2nc(-c3ccnc(-c4ccc5c(F)nn(C)c5c4)c3)sc2c(-c2ccc(Cl)cc2)c1[C@H](OC(C)(C)C)C(=O)O` [Compound 225, (S)-2-tert-butoxy-2-(7-(4-chlorophenyl)-2-(2-(3-fluoro-1-methyl-1H-indazol-6-yl)pyridin-4-yl)-5-methylbenzo[d]thiazol-6-yl)acetic acid], the EC50 under setting [1] was found to be 96 nM. For `CCc1cnn2cc(-c3cc(-c4nc5cc(C)c([C@H](OC(C)(C)C)C(=O)O)c(-c6ccc(Cl)cc6)c5s4)ccn3)cnc12` [Compound 226, (S)-2-tert-butoxy-2-(7-(4-chlorophenyl)-2-(2-(3-ethylpyrazolo[1,5-a]pyrimidin-6-yl)pyridin-4-yl)-5-methylbenzo[d]thiazol-6-yl)acetic acid], the EC50 under setting [1] amounted to 36 nM. On the same count and under the same terms, then `CCc1cnn2cc(-c3nc4cc(C)c([C@H](OC(C)(C)C)C(=O)O)c(-c5ccc(Cl)cc5)c4s3)cnc12` [Compound 227, (S)-2-tert-butoxy-2-(7-(4-chlorophenyl)-2-(3-ethylpyrazolo[1,5-a]pyrimidin-6-yl)-5-methylbenzo[d]thiazol-6-yl)acetic acid], with 85 nM; and `Cc1cc2nc(-c3cccc(-n4cc(C)c(=O)[nH]c4=O)c3)sc2c(-c2ccc(Cl)cc2)c1[C@H](OC(C)(C)C)C(=O)O` [Compound 228, (S)-2-tert-butoxy-2-(7-(4-chlorophenyl)-5-methyl-2-(3-(5-methyl-2,4-dioxo-3,4-dihydropyrimidin-1(2H)-yl)phenyl)benzo[d]thiazol-6-yl)acetic acid], with 910 nM.

As for `Cc1cc2nc(-c3cccc(-n4ccc(=O)[nH]c4=O)c3)sc2c(-c2ccc(Cl)cc2)c1[C@H](OC(C)(C)C)C(=O)O` [Compound 229, (S)-2-tert-butoxy-2-(7-(4-chlorophenyl)-2-(3-(2,4-dioxo-3,4-dihydropyrimidin-1(2H)-yl)phenyl)-5-methylbenzo[d]thiazol-6-yl)acetic acid], the half-maximal effective concentration (EC50) under setting [1] came out at 1740 nM. The same measure, in the same setting: then `Cc1cc2nc(-c3ccnc(-c4ccc(=O)[nH]c4)c3)sc2c(-c2ccc(Cl)cc2)c1[C@H](OC(C)(C)C)C(=O)O` [Compound 230, (S)-2-tert-butoxy-2-(7-(4-chlorophenyl)-5-methyl-2-(2-(6-oxo-1,6-dihydropyridin-3-yl)pyridin-4-yl)benzo[d]thiazol-6-yl)acetic acid], with 131 nM; and `Cc1cc2nc(-c3ccnc(-c4ccc[nH]c4=O)c3)sc2c(-c2ccc(Cl)cc2)c1[C@H](OC(C)(C)C)C(=O)O` [Compound 232, (S)-2-tert-butoxy-2-(7-(4-chlorophenyl)-5-methyl-2-(2-(2-oxo-1,2-dihydropyridin-3-yl)pyridin-4-yl)benzo[d]thiazol-6-yl)acetic acid], with 86 nM; and `COc1ncccc1-c1cc(-c2nc3cc(C)c([C@H](OC(C)(C)C)C(=O)O)c(-c4ccc(Cl)cc4)c3s2)ccn1` [Compound 233, (S)-2-tert-butoxy-2-(7-(4-chlorophenyl)-2-(2′-methoxy-2,3′-bipyridin-4-yl)-5-methylbenzo[d]thiazol-6-yl)acetic acid], with 33 nM.

Take `Cc1cc2nc(-c3ccnc(-c4cc5c(C)nn(C)c5cn4)c3)sc2c(-c2ccc(Cl)cc2)c1[C@H](OC(C)(C)C)C(=O)O` [Compound 234, (S)-2-tert-butoxy-2-(7-(4-chlorophenyl)-2-(2-(1,3-dimethyl-1H-pyrazolo[3,4-c]pyridin-5-yl)pyridin-4-yl)-5-methylbenzo[d]thiazol-6-yl)acetic acid]: the EC50 under setting [1] amounted to 13 nM. Still for that read-out and setting: then `Cc1cc2nc(-c3cc4c(C)nn(C)c4cn3)sc2c(-c2ccc(Cl)cc2)c1[C@H](OC(C)(C)C)C(=O)O` [Compound 235, (S)-2-tert-butoxy-2-(7-(4-chlorophenyl)-2-(1,3-dimethyl-1H-pyrazolo[3,4-c]pyridin-5-yl)-5-methylbenzo[d]thiazol-6-yl)acetic acid], with 14 nM; and `Cc1cc2nc(-c3ccnc(-c4cccc5c4CC(=O)N5C)c3)sc2c(-c2ccc(Cl)cc2)c1[C@H](OC(C)(C)C)C(=O)O` [Compound 236, (S)-2-tert-butoxy-2-(7-(4-chlorophenyl)-5-methyl-2-(2-(1-methyl-2-oxoindolin-4-yl)pyridin-4-yl)benzo[d]thiazol-6-yl)acetic acid], with 31 nM.

Take `Cc1cc2nc(-c3ccnc(-c4ccc5c(c4)CC(=O)N5C)c3)sc2c(-c2ccc(Cl)cc2)c1[C@H](OC(C)(C)C)C(=O)O` [Compound 237, (S)-2-tert-butoxy-2-(7-(4-chlorophenyl)-5-methyl-2-(2-(1-methyl-2-oxoindolin-5-yl)pyridin-4-yl)benzo[d]thiazol-6-yl)acetic acid]: the EC50 under setting [1] turned out to be 10 nM.

For `Cc1cc2nc(-c3ccc4c(c3)CC(=O)N4C)sc2c(-c2ccc(Cl)cc2)c1[C@H](OC(C)(C)C)C(=O)O` [Compound 239, (S)-2-tert-butoxy-2-(7-(4-chlorophenyl)-5-methyl-2-(1-methyl-2-oxoindolin-5-yl)benzo[d]thiazol-6-yl)acetic acid], the EC50 under setting [1] was found to be 26 nM. As to `Cc1cc2nc(-c3ccc4c(c3)CC(=O)N4)sc2c(-c2ccc(Cl)cc2)c1[C@H](OC(C)(C)C)C(=O)O` [Compound 240, (S)-2-tert-butoxy-2-(7-(4-chlorophenyl)-5-methyl-2-(2-oxoindolin-5-yl)benzo[d]thiazol-6-yl)acetic acid], the 50% effective concentration (EC50) under setting [1] amounted to 76 nM. On to `Cc1cc2nc(-c3ccnc(N4Cc5ccncc5C4=O)c3)sc2c(-c2ccc(Cl)cc2)c1[C@H](OC(C)(C)C)C(=O)O` [Compound 241, (S)-2-tert-butoxy-2-(7-(4-chlorophenyl)-5-methyl-2-(2-(3-oxo-1H-pyrrolo[3,4-c]pyridin-2(3H)-yl)pyridin-4-yl)benzo[d]thiazol-6-yl)acetic acid], for which the EC50 under setting [1] was 3 nM. Same read-out and setting: then `Cc1ccc2c(c1)CCN2c1nc2cc(C)c([C@H](OC(C)(C)C)C(=O)O)c(-c3ccc(Cl)cc3)c2s1` [Compound 243, (S)-2-tert-butoxy-2-(7-(4-chlorophenyl)-5-methyl-2-(5-methylindolin-1-yl)benzo[d]thiazol-6-yl)acetic acid], with 424 nM; and `Cc1cc2nc(-c3ccnc(N4CCc5cnccc54)c3)sc2c(-c2ccc(Cl)cc2)c1[C@H](OC(C)(C)C)C(=O)O` [Compound 245, (S)-2-tert-butoxy-2-(7-(4-chlorophenyl)-2-(2-(2,3-dihydro-1H-pyrrolo[3,2-c]pyridin-1-yl)pyridin-4-yl)-5-methylbenzo[d]thiazol-6-yl)acetic acid], with 9 nM; and `Cc1cc2nc(-c3nc(N4CCN(C(C)C)CC4)cs3)sc2c(-c2ccc(Cl)cc2)c1[C@H](OC(C)(C)C)C(=O)O` [Compound 246, (S)-2-tert-butoxy-2-(7-(4-chlorophenyl)-2-(4-(4-isopropylpiperazin-1-yl)thiazol-2-yl)-5-methylbenzo[d]thiazol-6-yl)acetic acid], with 9 nM. Same read-out and setting: the result for `Cc1cc2nc(-c3nc(N4CCN(C)CC4)cs3)sc2c(-c2ccc(Cl)cc2)c1[C@H](OC(C)(C)C)C(=O)O` [Compound 247] reads 10 nM; that for `Cc1cc2nc(-c3ccc4c(c3)CN(C)C4=O)sc2c(-c2ccc(Cl)cc2)c1[C@H](OC(C)(C)C)C(=O)O` [Compound 248, (S)-2-tert-butoxy-2-(7-(4-chlorophenyl)-5-methyl-2-(2-methyl-1-oxoisoindolin-5-yl)benzo[d]thiazol-6-yl)acetic acid], 13 nM.
